Measured values: patent US20220041665A1, “POLYNUCLEOTIDE AND USES THEREOF” (Helsingin yliopisto, priority 2019, published 2022)

How the values were obtained:
Assay type in all cases: cell-based, human
[1] = system: A431 cells with tagged DHC1; test: Analysis of cell division in A431 cells with tagged DHC1
Description: Cells were plated on μ-slide 8-well ibiTreat dishes at 0.1×10^5 cells per well 2 days before the experiment. On the experiment day, cells were loaded with 2 μM CellTracker™ Red CMTPX (Thermo, CAT #C34552) in complete medium for 15-30 min at 37° C. Medium was then changed to FluroBrite containing 10% FBS and incubated at 37° C. for 1-2 h before imaging to equilibrate the labelling. Cells were imaged with Nikon Eclipse Ti-E microscope equipped with 20× air objective, Nikon Perfect Focus System 3, Hamamatsu Flash 4.0 V2 scientific CMOS and Okolab stage top incubator system. Before recording, 6 fields for each of the 8 wells were selected with Celllracker™ Red fluorescence. IAA was then added at a final 0.5 mM concentration to IAA-treated cells, mixed well with pipetting, and time lapse imaging started immediately recording every 30 min for 16 h. Mitotic rounding cells were counted manually in the videos from 0.5 h to 6 h. Mitotic rounding cells without cell division were followed till 13 h.

[2] = system: A549 cells with tagged EGFR; test: EGF uptake in A549 cells with tagged EGFR
Description: A549 cells were seeded at 0.4×10^5 cells per 4-well for 3 days. Medium was changed to fresh medium with or without 0.5 mM IAA for 1 h. Cells were washed twice with ice-cold serum free medium with 1% BSA and 0.2 ml of 2 μg/ml Alexa Fluor™ 647 EGF complex (ThermoFisher, E35351) in serum free medium with 1% BSA was added. Cells were further incubated at 37° C. for 20 min before harvesting with trypsin. Samples were kept on ice before FACS analysis. Alexa Fluor™ 647 was excited with 640 nm laser and detected with 720/40 detector, analysing 20 000 cells per sample. Negative control samples were cells incubated in medium without EGF complex. Background subtracted mean fluorescence intensity was used for analysis.

[3] = system: seipin-mEGFP; test: FACS screen of auxin perceptive proteins and degrons (mean GFP intensity) in A431 cell pools; settings: cells expressing AtAFB2 and seipin-mEGFP with degron insertion; 0 h, 1 h, 16 h IAA
Description: To search for an improved AID system to solve the issue, a pipeline was first established in human A431 cells to screen AID components (FIG. 2A). Various auxin perceptive proteins and degrons were selected for screening. Several TIR1 and AFB2 proteins from different plant species were tested, as well as degrons derived from AtIAA17 (SEQ ID NO: 3), these including amino acid (aa.) 65-132 (miniAID), aa. 62-109, aa. 71-114. All these degrons were included in the screen. […] These high affinity fragments were tested, assuming higher affinity might translate into more efficient inducible degradation. Degrons with KR dipeptide deletions were tested to see if they would have an effect on enhancing IAA binding affinity, IAA-inducible depletion or as part of a nuclear localization signal. […]
For FACS analysis, cells were seeded at 1:5 (for A431) or 1:3 (for A549) into 6-well plate in medium without selection on day 0. […] Cells were gated with SSC, FSC and trigger pulse width for singlets and 100 000 cells were analyzed for each sample. GFP was excited with 488 nm laser and detected with 530/40 detector; mCherry was excited with 561 nm lasers and detected with 615/20 detector. Data was analyzed with BD FACS Sortware. Background subtracted mean fluorescence intensity was used for analysis.

[4] = system: seipin; test: Depletion of endogenous seipin tagged with mAID-mEGFP in A431 cells expressing OsTIR1; settings: cells expressing OsTIR1, no IAA
Excerpt: Initially seipin, a conserved transmembrane protein in the endoplasmic reticulum (ER) involved in lipid droplet (LD) biogenesis, was targeted for degradation. To rapidly deplete seipin from human A431 cells, an AID system, composed of TIR1 derived from Oryza sativa (OsTIR1) and mAID degron of 65 amino acids corresponding to AAs 68-132 of AtIAA17 (SEQ ID NO: 3), referred herein to as miniAID, was first employed. To this end, the endogenous seipin was homozygously tagged with mAID-mEGFP.

[5] = control cells without auxin perceptive protein

Chain of seipin (Q96G97+P93830 fused): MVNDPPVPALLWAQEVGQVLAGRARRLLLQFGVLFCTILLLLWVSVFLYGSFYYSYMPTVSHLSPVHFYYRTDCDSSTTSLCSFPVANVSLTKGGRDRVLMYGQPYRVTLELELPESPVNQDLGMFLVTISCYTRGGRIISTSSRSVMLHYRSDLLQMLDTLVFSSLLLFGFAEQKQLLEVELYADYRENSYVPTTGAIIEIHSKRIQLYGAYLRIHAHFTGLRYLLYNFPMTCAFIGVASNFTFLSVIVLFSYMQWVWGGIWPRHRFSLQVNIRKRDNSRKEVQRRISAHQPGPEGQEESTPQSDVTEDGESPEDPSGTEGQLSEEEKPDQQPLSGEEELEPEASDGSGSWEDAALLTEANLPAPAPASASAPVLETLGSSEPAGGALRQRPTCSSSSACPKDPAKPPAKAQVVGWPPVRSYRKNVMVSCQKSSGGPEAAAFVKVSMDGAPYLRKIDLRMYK

With `O=C(O)Cc1c[nH]c2ccccc12` [IAA, indole-3-acetic acid] the “fraction of mitotic rounding cells that completed cell division” value ([1]; DHC1-AtAFB2 cells, after IAA addition for 30 min (0.5 mM)) was 0%, the “effect of IAA per se on cell division” value [1, 5] was “did not affect” and the “reduction of EGF uptake” value ([2]; EGFR-AtAFB2 cells, 1 h IAA treatment (0.5 mM)) was 75%. The “effect of IAA per se on EGF uptake” value [2, 5] was “did not affect”.

“aa.82-101: minimal truncated AtIAA7 degron, aa. 82-101 of SEQ ID NO: 1 (QVVGWPPVRNYRKNMMTQQK; listed as Arabidopsis thaliana)” was tested, and the “auxin-inducible degradation of truncated AtIAA7 degron” value [3] was “similarly to miniIAA7”.

For “miniAID: mAID degron of 65 amino acids corresponding to AAs 68-132 of AtIAA17 (SEQ ID NO: 3)”, the “degradation of tagged seipin without IAA addition” value [4] was “severely degraded”.
